Numbers after ± are expanded uncertainties.

This data set can be described thus: activity coefficient (dimensionless); of the first substance listed, at infinite dilution; xn = mol fraction of the nth substance listed. The following applies: 101 kPa, Liquid, Chromatography, x1 = 0.

For the compound `C1CCCCCC1` [cycloheptane] + CCCCn1cc[n+](C)c1.[Cl-], the activity coefficient by setting is: (358.15 K) 62.7 ± 4.3; (368.15 K) 58.8 ± 4; (378.15 K) 55.4 ± 3.8; (388.15 K) 53.6 ± 3.7.
Taken in the same sequence, the figures for `CCC[N+](=O)[O-]` [1-nitropropane] + CCCCn1cc[n+](C)c1.CS(=O)(=O)[O-] were 1.89 ± 0.13, 1.96 ± 0.13, 2.02 ± 0.14 and 2.13 ± 0.14.
For `CC(C)=O` [acetone] + CCCCn1cc[n+](C)c1.COP(=O)([O-])OC, in that order: 1.92 ± 0.13, 1.96 ± 0.13, 2.02 ± 0.14 and 2.1 ± 0.14.
Take `CCOC(C)=O` [ethyl acetate] + CCCCn1cc[n+](C)c1.CS(=O)(=O)[O-]: the activity coefficient (358.15 K) was 4.76 ± 0.32, the activity coefficient (368.15 K) was 4.88 ± 0.33, the activity coefficient (378.15 K) is 5 ± 0.34 and the activity coefficient (388.15 K) amounted to 5.28 ± 0.36.
Take `C=COC(C)=O` [vinyl acetate] + CCCCn1cc[n+](C)c1.[Cl-]: the activity coefficient (358.15 K) came to 5.66 ± 0.39, the activity coefficient (368.15 K) was determined as 5.74 ± 0.39, the activity coefficient (378.15 K) worked out at 5.86 ± 0.4 and the activity coefficient (388.15 K) stood at 6.05 ± 0.41.
On to `C=C(C)c1ccccc1` [(1-methylethenyl)benzene] + CCCCn1cc[n+](C)c1.[Cl-], for which the activity coefficient reads like this: (358.15 K) 9.01 ± 0.61; (368.15 K) 9.33 ± 0.64; (378.15 K) 9.83 ± 0.67; (388.15 K) 10.3 ± 0.71.
Taken in the same sequence, the figures for `C1CCCCC1` [cyclohexane] + CCCCn1cc[n+](C)c1.COP(=O)([O-])OC were 12.3 ± 0.84, 11.9 ± 0.81, 11.6 ± 0.79 and 11.4 ± 0.78.
Take `O` [water] + CCCCn1cc[n+](C)c1.CS(=O)(=O)[O-]: the activity coefficient (398.15 K) turned out to be 0.2 ± 0.029, the activity coefficient (408.15 K) worked out at 0.214 ± 0.029, the activity coefficient (418.15 K) was found to be 0.228 ± 0.029 and the activity coefficient (428.15 K) was 0.239 ± 0.029.
As to `C#CCCC` [1-pentyne] + CCCCn1cc[n+](C)c1.COP(=O)([O-])OC, the activity coefficient (358.15 K) turned out to be 2.18 ± 0.15, the activity coefficient (368.15 K) is 2.32 ± 0.16, the activity coefficient (378.15 K) amounted to 2.46 ± 0.17 and the activity coefficient (388.15 K) is 2.6 ± 0.18.
On to `Cc1ccccc1` [toluene] + CCCCn1cc[n+](C)c1.CS(=O)(=O)[O-], for which the activity coefficient runs as follows: (358.15 K) 5.32 ± 0.36; (368.15 K) 5.45 ± 0.37; (378.15 K) 5.68 ± 0.39; (388.15 K) 5.84 ± 0.4.
Regarding `COC(C)=O` [methyl ethanoate] + CCCCn1cc[n+](C)c1.COP(=O)([O-])OC, the activity coefficient reads like this: (358.15 K) 2.58 ± 0.18; (368.15 K) 2.65 ± 0.18; (378.15 K) 2.73 ± 0.19; (388.15 K) 2.85 ± 0.19.
For the compound `C1CCCCCCC1` [cyclooctane] + CCCCn1cc[n+](C)c1.CS(=O)(=O)[O-], the activity coefficient runs as follows: (358.15 K) 57.1 ± 3.9; (368.15 K) 55.7 ± 3.8; (378.15 K) 54.4 ± 3.7; (388.15 K) 53.6 ± 3.7.
As for `CC(C)O` [propan-2-ol] + CCCCn1cc[n+](C)c1.COP(=O)([O-])OC, the activity coefficient (398.15 K) amounted to 0.256 ± 0.03, the activity coefficient (408.15 K) was determined as 0.282 ± 0.03, the activity coefficient (418.15 K) came to 0.311 ± 0.031 and the activity coefficient (428.15 K) was found to be 0.344 ± 0.032.
On to `CCCCCCCCC` [nonane] + CCCCn1cc[n+](C)c1.[Cl-], for which the activity coefficient is 476 ± 33 (358.15 K), 433 ± 30 (368.15 K), 394 ± 27 (378.15 K) and 376 ± 26 (388.15 K).
Taken in the same sequence, the figures for `C1CCCCC1` [cyclohexane] + CCCCn1cc[n+](C)c1.[Cl-] were 84.2 ± 5.8, 79 ± 5.4, 73 ± 5 and 69.8 ± 4.8.
For `CCC(=O)OC` [methyl propanoate] + CCCCn1cc[n+](C)c1.[Cl-], in that order: 8 ± 0.55, 8.09 ± 0.55, 8.2 ± 0.56 and 8.31 ± 0.57.
For the compound `CC#N` [acetonitrile] + CCCCn1cc[n+](C)c1.CS(=O)(=O)[O-], the activity coefficient reads like this: (358.15 K) 0.99 ± 0.06; (368.15 K) 1.03 ± 0.06; (378.15 K) 1.08 ± 0.07; (388.15 K) 1.12 ± 0.07.
In the case of `CC(C)CO` [2-methyl-1-propanol] + CCCCn1cc[n+](C)c1.COP(=O)([O-])OC, the activity coefficient (398.15 K) stood at 0.23 ± 0.029, the activity coefficient (408.15 K) was determined as 0.254 ± 0.03, the activity coefficient (418.15 K) was 0.281 ± 0.03 and the activity coefficient (428.15 K) came out at 0.313 ± 0.031.
Consider `Cc1cccc(C)c1` [1,3-dimethylbenzene] + CCCCn1cc[n+](C)c1.[Cl-], for which the activity coefficient (358.15 K) worked out at 14.3 ± 0.98, the activity coefficient (368.15 K) worked out at 14.5 ± 0.99, the activity coefficient (378.15 K) turned out to be 14.7 ± 1 and the activity coefficient (388.15 K) is 15 ± 1.
As for `CCC(C)O` (stereo not drawn) [butan-2-ol] + CCCCn1cc[n+](C)c1.[Cl-], the activity coefficient by setting is: (398.15 K) 0.749 ± 0.049; (408.15 K) 0.804 ± 0.052; (418.15 K) 0.865 ± 0.055; (428.15 K) 0.931 ± 0.059.
In the case of `C=CCCCCC` [1-heptene] + CCCCn1cc[n+](C)c1.[Cl-], the activity coefficient by setting is: (358.15 K) 88.9 ± 6.1; (368.15 K) 83.8 ± 5.7; (378.15 K) 79.3 ± 5.4; (388.15 K) 77.2 ± 5.3.
For `CCC[N+](=O)[O-]` [1-nitropropane] + CCCCn1cc[n+](C)c1.COP(=O)([O-])OC, in that order: 1.5 ± 0.1, 1.56 ± 0.1, 1.62 ± 0.11 and 1.72 ± 0.12.
With `CCCCO` [butan-1-ol] + CCCCn1cc[n+](C)c1.[Cl-], the activity coefficient amounted to 0.558 ± 0.04 (398.15 K), 0.594 ± 0.042 (408.15 K), 0.635 ± 0.044 (418.15 K) and 0.68 ± 0.046 (428.15 K).
In the case of `C=Cc1ccccc1` [styrene] + CCCCn1cc[n+](C)c1.COP(=O)([O-])OC, the activity coefficient worked out at 2.79 ± 0.19 (358.15 K), 2.93 ± 0.2 (368.15 K), 3.06 ± 0.21 (378.15 K) and 3.26 ± 0.22 (388.15 K).
For `C=CCCCC` [hex-1-ene] + CCCCn1cc[n+](C)c1.CS(=O)(=O)[O-], in that order: 39.7 ± 2.7, 40 ± 2.7, 40 ± 2.7 and 40.3 ± 2.8.
For `C1=CCCCC1` [cyclohexene] + CCCCn1cc[n+](C)c1.[Cl-], in that order: 22.8 ± 1.6, 22.3 ± 1.5, 21.5 ± 1.5 and 21.3 ± 1.5.
Taken in the same sequence, the figures for `C1CCOC1` [tetrahydrofuran] + CCCCn1cc[n+](C)c1.CS(=O)(=O)[O-] were 3.41 ± 0.23, 3.48 ± 0.24, 3.59 ± 0.24 and 3.72 ± 0.25.
Take `C1CCCC1` [cyclopentane] + CCCCn1cc[n+](C)c1.COP(=O)([O-])OC: the activity coefficient amounted to 8.76 ± 0.6 (358.15 K), 8.59 ± 0.59 (368.15 K), 8.41 ± 0.57 (378.15 K) and 8.33 ± 0.57 (388.15 K).
For `Cc1ccc(C)cc1` [1,4-dimethylbenzene] + CCCCn1cc[n+](C)c1.COP(=O)([O-])OC, in that order: 6.31 ± 0.43, 6.44 ± 0.44, 6.59 ± 0.45 and 6.86 ± 0.47.
With `CCCOCCC` [dipropyl ether] + CCCCn1cc[n+](C)c1.CS(=O)(=O)[O-], the activity coefficient runs as follows: (358.15 K) 38.1 ± 2.6; (368.15 K) 38.7 ± 2.6; (378.15 K) 38.9 ± 2.7; (388.15 K) 39.4 ± 2.7.
For `CCCC=O` [butanal] + CCCCn1cc[n+](C)c1.COP(=O)([O-])OC, in that order: 2.66 ± 0.18, 2.74 ± 0.19, 2.82 ± 0.19 and 2.97 ± 0.2.
Taken in the same sequence, the figures for `C#CCCCCC` [1-heptyne] + CCCCn1cc[n+](C)c1.[Cl-] were 11.6 ± 0.79, 12.3 ± 0.84, 12.7 ± 0.87 and 13.3 ± 0.91.
Regarding `C1COCCO1` [1,4-dioxane] + CCCCn1cc[n+](C)c1.CS(=O)(=O)[O-], the activity coefficient (358.15 K) came out at 2.33 ± 0.16, the activity coefficient (368.15 K) is 2.41 ± 0.16, the activity coefficient (378.15 K) came out at 2.49 ± 0.17 and the activity coefficient (388.15 K) came to 2.62 ± 0.18.
On to `CCCCCCCCCC` [decane] + CCCCn1cc[n+](C)c1.CS(=O)(=O)[O-], for which the activity coefficient is, setting by setting: (358.15 K) 371 ± 26; (368.15 K) 352 ± 24; (378.15 K) 340 ± 23; (388.15 K) 324 ± 22.
On to `Cc1ccc(C)cc1` [1,4-dimethylbenzene] + CCCCn1cc[n+](C)c1.CS(=O)(=O)[O-], for which the activity coefficient reads like this: (358.15 K) 9.03 ± 0.62; (368.15 K) 9.2 ± 0.63; (378.15 K) 9.37 ± 0.64; (388.15 K) 9.71 ± 0.66.
Taken in the same sequence, the figures for `CCC(=O)CC` [pentan-3-one] + CCCCn1cc[n+](C)c1.[Cl-] were 7.6 ± 0.52, 7.72 ± 0.53, 7.78 ± 0.53 and 7.97 ± 0.54.
On to `C#CCCCCC` [1-heptyne] + CCCCn1cc[n+](C)c1.CS(=O)(=O)[O-], for which the activity coefficient by setting is: (358.15 K) 12 ± 0.82; (368.15 K) 12.6 ± 0.86; (378.15 K) 13.3 ± 0.91; (388.15 K) 14.1 ± 0.96.

Values taken from the NIST ThermoML archive (doi:10.1016/j.jct.2015.07.042).
